The text below walks through data of ChEMBL document CHEMBL1144170, “Syntheses and structure-activity relationships of novel, potent, and selective trans-2-[3-oxospiro[isobenzofuran-1(3H),1'-cyclohexan]-4'-yl]benzimidazole NPY Y5 receptor antagonists” (Bioorg Med Chem Lett, 2008).

Series [1] addresses T1, Neuropeptide Y receptor type 5 (Homo sapiens, UniProt Q15761).
T1 sequence (Q15761 whole entry): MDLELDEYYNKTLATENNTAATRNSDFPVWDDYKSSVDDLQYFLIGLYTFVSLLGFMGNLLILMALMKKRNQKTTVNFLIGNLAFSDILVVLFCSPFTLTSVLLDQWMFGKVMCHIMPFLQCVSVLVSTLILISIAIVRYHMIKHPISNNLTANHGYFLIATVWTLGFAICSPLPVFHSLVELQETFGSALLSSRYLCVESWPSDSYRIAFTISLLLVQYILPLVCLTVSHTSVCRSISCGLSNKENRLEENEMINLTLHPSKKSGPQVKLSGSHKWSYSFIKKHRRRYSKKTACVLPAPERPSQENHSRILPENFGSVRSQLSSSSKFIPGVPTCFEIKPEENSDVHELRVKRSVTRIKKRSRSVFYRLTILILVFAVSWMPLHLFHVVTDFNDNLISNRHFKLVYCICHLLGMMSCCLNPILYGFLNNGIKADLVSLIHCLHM
Nature of the series: Displacement of [125I]PYY from human recombinant NPYY5 receptor expressed in mouse LMtk cells. Type of series: cell-based. On the technique in general: In a radioligand displacement assay an active substance lowers the binding of a labelled ligand.

Series [2] in a line: Solubility in 0.2 M phosphate buffer at pH 6.8. Type of series: physicochemical.
The test system of the next series is Brain. Nature of the series: Drug level in rat brain at 2.7 mg/kg, iv after 10 mins. Format: ADME, organism-based. More on the design: dose 2.7 mg/kg, route intravenous. The conditions noted are these: in vivo.
Series [3] is described as follows: Ratio of drug level in brain to plasma at 2.7 mg/kg, iv after 10 mins. Format: ADME, organism-based. More on the design: dose 2.7 mg/kg, route intravenous. The settings on record: rat, read-out: BPR.
Series [4] can be described thus: Plasma concentration in rat plasma at 2.7 mg/kg, iv after 10 mins. Format: ADME, organism-based. More on the design: dose 2.7 mg/kg, route intravenous. The conditions noted are these: read-out: Drug uptake.
Series [5] is described as follows: Selectivity for human NPYY5 receptor over NPYY4 receptor.
The nature of series [6]: Plasma concentration in rat plasma at 10 mg/kg, po after 2 hrs. The conditions noted are these: read-out: Drug uptake. Type of series: ADME, organism-based. More on the design: dose 10 mg/kg, route oral.
Series [7] has as its target T1, Neuropeptide Y receptor type 5. Nature of the series: Antagonist activity at human recombinant NPYY5 receptor expressed in mouse LMtk cells assessed as inhibition of NPY-induced calcium increase. Format: functional, cell-based.
The nature of series [8]: Ratio of drug level in brain to plasma in rat at 10 mg/kg, po after 2 hrs. Format: ADME, organism-based. More on the design: dose 10 mg/kg, route oral.
Series [9] in a line: Selectivity for human NPYY5 receptor over NPYY2 receptor.
Series [10] concerns the target T2, Neuropeptide Y receptor type 2 (Homo sapiens, UniProt P49146).
T2 sequence (P49146 whole entry): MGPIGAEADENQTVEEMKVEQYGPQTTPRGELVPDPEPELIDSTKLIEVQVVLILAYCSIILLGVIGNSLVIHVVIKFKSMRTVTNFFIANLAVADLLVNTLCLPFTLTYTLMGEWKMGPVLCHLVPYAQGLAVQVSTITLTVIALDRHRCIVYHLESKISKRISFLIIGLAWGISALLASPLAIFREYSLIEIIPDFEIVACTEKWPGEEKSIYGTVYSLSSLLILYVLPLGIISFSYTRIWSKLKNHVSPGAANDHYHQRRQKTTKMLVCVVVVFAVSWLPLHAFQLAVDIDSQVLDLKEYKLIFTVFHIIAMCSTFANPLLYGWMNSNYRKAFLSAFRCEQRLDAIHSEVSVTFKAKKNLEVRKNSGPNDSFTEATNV
Briefly: Inhibition of NPYY2 receptor.

The nature of series [11]: Selectivity for human NPYY5 receptor over NPYY1 receptor.
A short description of series [12]: Plasma concentration in rat plasma at 10 mg/kg, po after 4 hrs. Type of series: ADME, organism-based. More on the design: dose 10 mg/kg, route oral. The conditions noted are these: read-out: Drug uptake.
Series [13] has as its target Neuropeptide Y receptor type 4 (Homo sapiens, UniProt P50391). Briefly: Inhibition of NPYY4 receptor.
Series [14] concerns the target T3, Neuropeptide Y receptor type 1 (Homo sapiens, UniProt P25929).
T3 sequence (P25929 whole entry): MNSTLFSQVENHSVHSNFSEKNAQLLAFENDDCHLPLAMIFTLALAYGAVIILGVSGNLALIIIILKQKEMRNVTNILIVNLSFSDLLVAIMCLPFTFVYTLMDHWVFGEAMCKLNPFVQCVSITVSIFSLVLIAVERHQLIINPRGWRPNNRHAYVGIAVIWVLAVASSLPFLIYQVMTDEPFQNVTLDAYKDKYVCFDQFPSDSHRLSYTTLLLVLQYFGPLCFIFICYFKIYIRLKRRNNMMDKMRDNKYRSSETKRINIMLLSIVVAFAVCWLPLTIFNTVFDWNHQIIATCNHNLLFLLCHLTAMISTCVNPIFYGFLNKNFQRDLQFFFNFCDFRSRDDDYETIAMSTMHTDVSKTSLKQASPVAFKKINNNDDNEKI
Briefly: Inhibition of NPYY1 receptor.

Molecules are shown by their SMILES. Converted amounts (≈) assume the structure as drawn.

Neuropeptide Y receptor type 4, sequence (P50391 whole entry): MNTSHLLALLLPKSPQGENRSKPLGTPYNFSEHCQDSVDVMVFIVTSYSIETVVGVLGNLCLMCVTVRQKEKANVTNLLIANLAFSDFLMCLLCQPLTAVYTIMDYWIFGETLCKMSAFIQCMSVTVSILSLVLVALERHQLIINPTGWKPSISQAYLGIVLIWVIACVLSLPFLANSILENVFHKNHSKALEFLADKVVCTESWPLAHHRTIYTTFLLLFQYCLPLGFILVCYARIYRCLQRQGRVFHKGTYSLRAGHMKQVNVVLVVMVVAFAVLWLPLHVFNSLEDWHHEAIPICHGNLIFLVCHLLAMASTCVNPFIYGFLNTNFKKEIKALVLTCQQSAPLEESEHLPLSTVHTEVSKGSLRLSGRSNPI

The term IC50 denotes the concentration needed to halve the response being measured. `O=C(c1ccccc1)c1ccc2[nH]c([C@H]3CC[C@@]4(CC3)OC(=O)c3ccccc34)nc2c1`: the IC50 in [1] worked out at 2.4 nM.
`O=C1O[C@]2(CC[C@H](c3nc4cc(Cl)c(Cl)cc4[nH]3)CC2)c2ccccc21`: the IC50 in series [1] was 8 nM.
Consider `Cn1c2cc(Cl)c(Cl)cc2nc1[C@H]1CC[C@@]2(CC1)OC(=O)c1ccccc12`, for which the IC50 in series [1] is > 1000 nM.
For `COC(=O)c1cc2[nH]c([C@H]3CC[C@@]4(CC3)OC(=O)c3ccccc34)nc2cc1Cl`, the IC50 in series [1] was found to be 2.2 nM.
By solubility is commonly meant how much of the substance goes into solution per volume. Low values mean little dissolved substance, high ones much dissolved substance. Molecule `COC(=O)c1ccc2[nH]c([C@H]3CC[C@@]4(CC3)OC(=O)c3ccccc34)nc2c1` yielded a solubility in [2] of 0.6 µg/mL (≈ 1.59 µM). In series [1], the concentration for half-maximal inhibition (IC50) came out at 7.7 nM. This molecule displayed a Drug uptake with Brain of 1.7 nmol/g. The Kp at 10 min in [3] is 0.55. The concentration at 10 min in [4] was 3100 nM.
On to `Cc1nnc(-c2ccc3[nH]c([C@H]4CC[C@]5(CC4)OC(=O)c4ccccc45)nc3c2)o1`, for which the IC50 in series [1] was 1000 nM.
Still for that read-out and setting: in the case of `O=C1O[C@]2(CC[C@H](c3nc4cc(Cl)ccc4[nH]3)CC2)c2ccccc21` it was 39 nM; in that of `O=C1O[C@]2(CC[C@H](c3nc4cc(Br)ccc4[nH]3)CC2)c2ccccc21`, 45 nM.
`COC(=O)c1cc2[nH]c([C@H]3CC[C@]4(CC3)OC(=O)c3ccccc34)nc2cc1Cl`: the IC50 in [1] came to 1000 nM.
Regarding `Cc1nnc(-c2ccc3[nH]c([C@H]4CC[C@@]5(CC4)OC(=O)c4ccccc45)nc3c2)o1`, the solubility in [2] was found to be 0.94 µg/mL (≈ 2.35 µM). Besides, the Selectivity ratio in [5], in [9] and in series [11] was 1000 each time. For the same molecule, in [6], the concentration at 2 h stood at 1400 nM. Further, the IC50 is 5.5 nM in series [7]; 3.3 nM in series [1]; > 10000 nM in [10]; > 10000 nM in series [13]; > 10000 nM in series [14]. For the same molecule, the Kp at 2 h in series [8] was determined as 0.05. In addition, in series [12], the concentration at 4 h came out at 850 nM.
Consider `O=C1O[C@]2(CC[C@H](c3nc4cc(-c5noc(C(F)(F)F)n5)ccc4[nH]3)CC2)c2ccccc21`, for which the IC50 in series [1] is 2.1 nM.
For `O=C1O[C@]2(CC[C@H](c3nc4cc(-c5cccnc5)ccc4[nH]3)CC2)c2ccccc21`, in series [1], the IC50 is 3.1 nM.
For the molecule `O=C1O[C@]2(CC[C@H](c3nc4ccc(-c5ccc(F)cc5)cc4[nH]3)CC2)c2ccccc21`, the IC50 in series [1] turned out to be 1.7 nM.
`O=C1O[C@]2(CC[C@H](c3nc4ccc(-c5ccccc5)cc4[nH]3)CC2)c2ccccc21`: the IC50 in [1] came to 2.3 nM.
Regarding `COC(=O)c1ccc2[nH]c([C@H]3CC[C@@]4(CC3)OC(=O)c3ccccc34)nc2c1Cl`, the IC50 in series [1] is 4.5 nM.
For `O=C1O[C@]2(CC[C@H](c3nc4ccccc4[nH]3)CC2)c2ccccc21`, the IC50 in series [1] is 91 nM.
On the same count and under the same terms, in the case of `O=C1O[C@]2(CC[C@H](c3nc4cc(-c5ccccn5)ccc4[nH]3)CC2)c2ccccc21` it was 2.4 nM; in that of `O=C1O[C@]2(CC[C@H](c3nc4cc(C(F)(F)F)ccc4[nH]3)CC2)c2ccccc21`, 47 nM.
`Cc1nc(-c2ccc3[nH]c([C@H]4CC[C@@]5(CC4)OC(=O)c4ccccc45)nc3c2)no1`: the Selectivity ratio in [5], in series [9] and in series [11] was 1000 throughout. In series [6], the concentration at 2 h amounted to 400 nM. The IC50 is 7 nM in [7]; 5.1 nM in [1]; > 10000 nM in series [10]; > 10000 nM in series [13]; > 10000 nM in series [14].
For `O=C1O[C@]2(CC[C@H](c3nc4cc(Cl)c(-c5ccccc5)cc4[nH]3)CC2)c2ccccc21`, the IC50 in series [1] was found to be 2.2 nM.
The same measure, in the same setting: in the case of `O=C1O[C@]2(CC[C@H](c3nc4cc(-c5nnco5)ccc4[nH]3)CC2)c2ccccc21` it was 15 nM.
For the molecule `N#Cc1ccc2[nH]c([C@H]3CC[C@@]4(CC3)OC(=O)c3ccccc34)nc2c1`, the IC50 in [1] worked out at 20 nM.
`O=C1O[C@]2(CC[C@H](c3nc4cc(Cl)c(C(F)(F)F)cc4[nH]3)CC2)c2ccccc21`: the solubility in [2] was < 0.01 µg/mL. In addition, the IC50 in series [1] came out at 2.6 nM.
As for `Cn1nnc(-c2ccc3[nH]c([C@H]4CC[C@@]5(CC4)OC(=O)c4ccccc45)nc3c2)n1`, the solubility in series [2] came to 5.9 µg/mL (≈ 14.7 µM). For the same molecule, the Selectivity ratio in series [5], in [9] and in series [11] was 1000 throughout. Moreover, the concentration at 2 h in series [6] was determined as 3200 nM. For the same molecule, the IC50 in [7] is 7.2 nM; in series [1], 5.9 nM; in series [10], > 10000 nM; in series [13], > 10000 nM; in [14], > 10000 nM. Besides, the Kp at 2 h in series [8] worked out at 0.12. Moreover, in series [12], the concentration at 4 h is 990 nM.
